Reference: US12252524B2, “GIP/GLP1 co-agonist compounds” (Eli Lilly and Company, priority 2018, dated 2025)
Numbered stars: 1 amine (or outer) side, 2 acyl side, 3 side chain; on linkers, the order of the positions; unused ones are H or OH. Square brackets hold non-standard residues; d marks the D form. Side chains are listed from the residue outwards. Peptide text beside a SMILES is read from it. * marks the point of attachment. C20 diacid = O=C(O)CCCCCCCCCCCCCCCCCCC(=O)*; αMePhe(2-F) = C[C@](N)(Cc1ccccc1F)C(=O)O; γGlu = O=C(O)[C@H](CCC(=O)[*:2])N[*:1]; αMeL = CC(C)C[C@](C)(N)C(=O)O; AEEA = NCCOCCOCC(=O)O; Aib = CC(C)(N)C(=O)O

How the values were obtained:
human GIP receptor = biological target: T1, human GIP receptor (Homo sapiens, UniProt P48546); test: [125I]-GIP binding (SPA), human GIP receptor; settings: read-out: hGIPR Ki, nM (SEM, n)
T1 construct: expressed in transfected cells; crude membranes
T1 sequence (P48546 22-466): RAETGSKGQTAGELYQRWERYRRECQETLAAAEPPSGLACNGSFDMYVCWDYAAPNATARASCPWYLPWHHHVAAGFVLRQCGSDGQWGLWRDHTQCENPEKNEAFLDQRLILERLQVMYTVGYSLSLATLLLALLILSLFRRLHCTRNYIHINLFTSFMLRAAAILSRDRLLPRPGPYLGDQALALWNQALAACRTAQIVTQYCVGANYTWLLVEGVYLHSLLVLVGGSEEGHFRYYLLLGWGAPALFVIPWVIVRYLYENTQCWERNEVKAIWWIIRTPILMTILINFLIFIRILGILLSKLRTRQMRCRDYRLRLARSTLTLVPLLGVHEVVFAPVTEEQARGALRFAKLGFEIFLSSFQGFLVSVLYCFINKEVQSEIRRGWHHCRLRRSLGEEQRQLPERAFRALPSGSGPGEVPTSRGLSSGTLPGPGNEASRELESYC
Procedure: (§1) Two methods are used for the preparation of crude cell membranes.
(§2) Method 1: Frozen cell pellets are lysed on ice in hypotonic buffer containing 50 mM Tris HCl, pH 7.5, and Roche Complete™ Protease Inhibitors with EDTA. The cell suspension is disrupted using a glass Potter-Elvehjem homogenizer fitted with a Teflon® pestle for 25 strokes. The homogenate is centrifuged at 4° C. at 1100×g for 10 minutes. The supernatant is collected and stored on ice while the pellets are resuspended in homogenization buffer and rehomogenized as described above. The homogenate is centrifuged at 1100×g for 10 minutes. The second supernatant is combined with the first supernatant and centrifuged at 35000×g for 1 hour at 4° C. The resulting membrane pellet is resuspended in homogenization buffer containing protease inhibitors at approximately 1 to 3 mg/mL, quick frozen in liquid nitrogen and stored as aliquots in a−80° C. freezer until use.
(§3) Method 2: Frozen cell pellets are lysed on ice in hypotonic buffer containing 50 mM Tris HCl, pH 7.5, 1 mM MgCl2, Roche Complete™ EDTA-free Protease Inhibitors and 25 units/ml DNAse I (Invitrogen). The cell suspension is disrupted using a glass Potter-Elvehjem homogenizer fitted with a Teflon® pestle for 20 to 25 strokes. The homogenate is centrifuged at 4° C. at 1800×g for 15 minutes. The supernatant is collected and stored on ice while the pellets are resuspended in homogenization buffer (without DNAse I) and rehomogenized as described above. The homogenate is centrifuged at 1800×g for 15 minutes. The second supernatant is combined with the first supernatant and centrifuged an additional time at 1800×g for 15 minutes. The overall supernatant is then centrifuged at 25000×g for 30 minutes at 4° C. The resulting membrane pellet is resuspended in homogenization buffer (without DNAse I) containing protease inhibitors at approximately 1 to 3 mg/mL and stored as aliquots in a−80° C. freezer until use.
The binding buffer contains 25 mM HEPES, pH 7.4, 2.5 mM CaCl2, 1 mM MgCl2, 0.1% (w/v) bacitracin, 0.003% (w/v) TWEEN©-20, and Roche Complete™ Protease Inhibitors without EDTA. Peptides and GIP are thawed and 3 fold serially diluted in 100% DMSO (10 point concentration response curves). […] Plates are sealed and mixed on a plate shaker (setting 6) for 1 minute and read with a PerkinElmer Trilux MicroBeta© scintillation counter after 2.5 to 12 hours of incubation/settling time at room temperature.
(§4) Data are analyzed using four-parameter (curve maximum, curve minimum, IC50, Hill slope) nonlinear regression routines (Genedata Screener, version 12.0.4, Genedata AG, Basal, Switzerland). […] Values for Ki are reported as the geometric mean, with error expressed as the standard error of the mean (SEM) and n is equal to the number of independent replicates (determined in assays performed on different days). […] The Ki Ratio is a rapid indication of the apparent affinity of a peptide compared to the native control peptide. […] SEM is only calculated when n=2 or greater non-qualified results exist. Means are expressed as GeoMetric means with the standard error of the mean (SEM) and the number of replicates (n) indicated in parenthesis.

human Gcg receptor = biological target: T2, human Gcg receptor (Homo sapiens, UniProt P47871); test: [125I]-Glucagon binding (SPA), human Gcg receptor; settings: read-out: hGLcgR Ki, nM (SEM, n)
T2 construct: expressed in transfected cells; crude membranes
Procedure: as §1, §2, §3
The human Gcg receptor binding assays are performed using a Scintillation Proximity Assay (SPA) format with wheat germ agglutinin (WGA) beads (Perkin Elmer). The binding buffer contains 25 mM 4-(2-hydroxyethyl)-1-piperazineethanesulfonic acid (HEPES), pH 7.4, 2.5 mM CaCl2, 1 mM MgCl2, 0.1% (w/v) bacitracin (Research Products), 0.003% (w/v) Polyoxyethylenesorbitan monolaurate (TWEEN©-20), and Roche Complete™ Protease Inhibitors without EDTA. […] Plates are sealed and mixed on a plate shaker (setting 6) for 1 minute and read with a PerkinElmer Trilux MicroBeta© scintillation counter after 12 hours of incubation/settling time at room temperature.
as §4

human GLP-1R = human GLP-1R (Homo sapiens, UniProt P43220); test: [125I]-GLP-1 binding (SPA), human GLP-1 receptor; design: expressed in transfected cells; crude membranes; settings: read-out: hGLP1R Ki, (nM) (SEM, n)
Procedure: as §1, §2, §3
The binding buffer contains 25 mM HEPES, pH 7.4, 2.5 mM CaCl2, 1 mM MgCl2, 0.1% (w/v) bacitracin, 0.003% (w/v) TWEEN©-20, and Roche Complete™ Protease Inhibitors without EDTA.
as §4

[1] = biological target: human GLP-1 receptor (GLP-1R) (Homo sapiens, UniProt P43220); test: cAMP pharmacological functional assay in presence of casein, hGLP-1R; assay type: cell-based; settings: HEK293 cells expressing hGLP-1R, 0.1% Casein, geometric mean; read-out: hGLP1R cAMP Rel EC50 nM (SEM, n)
[2] = biological target: T3, gastric inhibitory peptide receptor (GIPR) (Homo sapiens, UniProt P48546); test: cAMP pharmacological functional assay in presence of casein, hGIPR; assay type: cell-based; settings: HEK293 cells expressing hGIPR, 0.1% Casein, geometric mean; read-out: hGIPR cAMP Rel EC50 nM (SEM, n)
T3 sequence (P48546 22-466): T1 sequence (P48546 22-466)

Sequence of human GLP-1R (P43220 24-463): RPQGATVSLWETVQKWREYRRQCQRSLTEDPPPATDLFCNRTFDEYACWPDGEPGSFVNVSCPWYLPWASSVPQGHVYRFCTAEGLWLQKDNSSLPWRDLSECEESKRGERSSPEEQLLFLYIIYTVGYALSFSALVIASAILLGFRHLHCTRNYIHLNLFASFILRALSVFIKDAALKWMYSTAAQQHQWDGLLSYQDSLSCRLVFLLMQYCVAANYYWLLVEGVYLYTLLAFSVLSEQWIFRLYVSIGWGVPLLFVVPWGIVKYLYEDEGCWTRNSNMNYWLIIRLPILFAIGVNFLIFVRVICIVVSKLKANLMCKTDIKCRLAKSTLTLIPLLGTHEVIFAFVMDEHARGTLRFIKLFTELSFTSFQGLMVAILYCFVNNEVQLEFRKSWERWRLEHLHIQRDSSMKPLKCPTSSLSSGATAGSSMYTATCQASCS
Sequence of human GLP-1 receptor (GLP-1R) (P43220 24-463): as above
T2 sequence (P47871 26-477): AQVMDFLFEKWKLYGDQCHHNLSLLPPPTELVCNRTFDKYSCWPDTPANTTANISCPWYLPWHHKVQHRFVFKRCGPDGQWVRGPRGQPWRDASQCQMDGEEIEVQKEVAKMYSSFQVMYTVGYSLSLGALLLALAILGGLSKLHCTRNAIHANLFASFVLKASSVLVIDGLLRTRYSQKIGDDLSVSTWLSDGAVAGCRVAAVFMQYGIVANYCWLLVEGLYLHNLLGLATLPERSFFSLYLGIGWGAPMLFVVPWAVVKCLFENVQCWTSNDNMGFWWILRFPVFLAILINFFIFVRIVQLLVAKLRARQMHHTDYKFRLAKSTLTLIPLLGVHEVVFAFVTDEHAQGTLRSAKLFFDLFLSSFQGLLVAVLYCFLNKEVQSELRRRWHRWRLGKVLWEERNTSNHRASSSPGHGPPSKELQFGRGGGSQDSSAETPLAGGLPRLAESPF

SMILES | Ki (human GIP receptor) | Ki (human Gcg receptor) | Ki (human GLP-1R) | EC50 [1] | EC50 [2]
CC[C@H](C)[C@H](NC(=O)[C@H](Cc1ccccc1)NC(=O)[C@H](C)NC(=O)C(C)(C)NC(=O)[C@H](CCC(N)=O)NC(=O)[C@H](C)NC(=O)[C@H](CCCCNC(=O)COCCOCCNC(=O)COCCOCCNC(=O)CC[C@H](NC(=O)CCCCCCCCCCCCCCCCCCC(=O)O)C(=O)O)NC(=O)[C@H](CCCCN)NC(=O)[C@H](CC(=O)O)NC(=O)[C@H](CC(C)C)NC(=O)[C@H](CC(C)C)NC(=O)[C@@H](NC(=O)[C@H](CO)NC(=O)[C@H](Cc1ccc(O)cc1)NC(=O)[C@H](CC(=O)O)NC(=O)[C@H](CO)NC(=O)[C@@H](NC(=O)[C@H](Cc1ccccc1)NC(=O)[C@@H](NC(=O)CNC(=O)[C@H](CCC(=O)O)NC(=O)C(C)(C)NC(=O)[C@@H](N)Cc1ccc(O)cc1)[C@@H](C)O)[C@@H](C)O)[C@@H](C)CC)C(=O)N[C@@H](CCC(=O)O)C(=O)N[C@@H](Cc1ccc(O)cc1)C(=O)N[C@@H](CC(C)C)C(=O)N[C@@H](CC(C)C)C(=O)N[C@@H](CCC(=O)O)C(=O)NCC(=O)NCC(=O)N1CCC[C@H]1C(=O)N[C@@H](CO)C(=O)N[C@@H](CO)C(=O)NCC(=O)N[C@@H](C)C(=O)N1CCC[C@H]1C(=O)N1CCC[C@H]1C(=O)N1CCC[C@H]1C(=O)N[C@@H](CO)C(N)=O [Example 6] (H-Y[Aib]EGTFTSDYSILLDKK([AEEA-AEEA-γGlu-C20 diacid])AQ[Aib]AFIEYLLEGGPSSGAPPPS-NH2) | 0.0835 nM | 55.8 nM | 6.71 nM | 0.374 nM | 0.0899 nM
CC[C@H](C)[C@H](NC(=O)[C@H](Cc1ccccc1)NC(=O)[C@H](C)NC(=O)C(C)(C)NC(=O)[C@H](CCC(N)=O)NC(=O)[C@H](C)NC(=O)[C@H](CCCCNC(=O)COCCOCCNC(=O)COCCOCCNC(=O)CC[C@H](NC(=O)CCCCCCCCCCCCCCCCCCC(=O)O)C(=O)O)NC(=O)[C@H](CO)NC(=O)[C@H](CC(=O)O)NC(=O)[C@H](CC(C)C)NC(=O)[C@H](CC(C)C)NC(=O)[C@@H](NC(=O)[C@H](CO)NC(=O)[C@H](Cc1ccc(O)cc1)NC(=O)[C@H](CC(=O)O)NC(=O)[C@H](CO)NC(=O)[C@@H](NC(=O)[C@H](Cc1ccccc1)NC(=O)[C@@H](NC(=O)CNC(=O)[C@H](CCC(=O)O)NC(=O)C(C)(C)NC(=O)[C@@H](N)Cc1ccc(O)cc1)[C@@H](C)O)[C@@H](C)O)[C@@H](C)CC)C(=O)N[C@@H](CCC(=O)O)C(=O)N[C@@H](Cc1ccc(O)cc1)C(=O)N[C@@H](CC(C)C)C(=O)N[C@@H](CC(C)C)C(=O)N[C@@H](CCC(=O)O)C(=O)NCC(=O)NCC(=O)N1CCC[C@H]1C(=O)N[C@@H](CO)C(=O)N[C@@H](CO)C(=O)NCC(=O)N[C@@H](C)C(=O)N1CCC[C@H]1C(=O)N1CCC[C@H]1C(=O)N1CCC[C@H]1C(=O)N[C@@H](CO)C(N)=O [Example 7] (H-Y[Aib]EGTFTSDYSILLDSK([AEEA-AEEA-γGlu-C20 diacid])AQ[Aib]AFIEYLLEGGPSSGAPPPS-NH2) | 0.252 nM | 198 nM | 43.3 nM | 0.47 nM | 0.461 nM
CC[C@H](C)[C@H](NC(=O)[C@H](CC(C)C)NC(=O)[C@H](Cc1ccc(O)cc1)NC(=O)[C@H](CCC(=O)O)NC(=O)[C@@H](NC(=O)[C@H](Cc1ccccc1)NC(=O)[C@H](C)NC(=O)C(C)(C)NC(=O)[C@H](CCC(N)=O)NC(=O)[C@H](C)NC(=O)[C@H](CCCCNC(=O)COCCOCCNC(=O)COCCOCCNC(=O)CC[C@H](NC(=O)CCCCCCCCCCCCCCCCCCC(=O)O)C(=O)O)NC(=O)[C@H](CCCCN)NC(=O)[C@H](CC(=O)O)NC(=O)[C@H](CC(C)C)NC(=O)[C@H](CC(C)C)NC(=O)[C@@H](NC(=O)[C@H](CO)NC(=O)[C@H](Cc1ccc(O)cc1)NC(=O)[C@H](CC(=O)O)NC(=O)[C@H](CO)NC(=O)[C@@H](NC(=O)[C@H](Cc1ccccc1)NC(=O)[C@@H](NC(=O)CNC(=O)[C@H](CCC(=O)O)NC(=O)C(C)(C)NC(=O)[C@@H](N)Cc1ccc(O)cc1)[C@@H](C)O)[C@@H](C)O)[C@@H](C)CC)[C@@H](C)CC)C(=O)N[C@@H](CCC(=O)O)C(=O)NCC(=O)NCC(=O)N1CCC[C@H]1C(=O)N[C@@H](CO)C(=O)N[C@@H](CO)C(=O)NCC(=O)N[C@@H](C)C(=O)N1CCC[C@H]1C(=O)N1CCC[C@H]1C(=O)N1CCC[C@H]1C(=O)N[C@@H](CO)C(N)=O [Example 8] | 0.0772 nM | 206 nM | 2.84 nM | 0.148 nM | 0.0848 nM
CC[C@H](C)[C@H](NC(=O)[C@H](CC(C)C)NC(=O)[C@H](Cc1ccc(O)cc1)NC(=O)[C@@H](CCC(=O)O)NC(=O)[C@@H](NC(=O)[C@H](Cc1ccccc1)NC(=O)[C@H](CCC(=O)O)NC(=O)C(C)(C)NC(=O)[C@H](CCC(N)=O)NC(=O)[C@H](C)NC(=O)[C@H](CCCCNC(=O)COCCOCCNC(=O)COCCOCCNC(=O)CC[C@H](NC(=O)CCCCCCCCCCCCCCCCCCC(=O)O)C(=O)O)NC(=O)[C@H](CCC(=O)O)NC(=O)[C@H](CC(=O)O)NC(=O)[C@H](CC(C)C)NC(=O)[C@](C)(CC(C)C)NC(=O)[C@@H](NC(=O)[C@H](CO)NC(=O)[C@H](CC(C)C)NC(=O)[C@H](CC(=O)O)NC(=O)[C@H](CO)NC(=O)[C@@H](NC(=O)[C@](C)(Cc1ccccc1F)NC(=O)[C@@H](NC(=O)CNC(=O)[C@H](CCC(=O)O)NC(=O)C(C)(C)NC(=O)[C@@H](N)Cc1ccc(O)cc1)[C@@H](C)O)[C@@H](C)O)[C@@H](C)CC)[C@@H](C)CC)C(=O)N[C@@H](CCC(=O)O)C(=O)NCC(=O)NCC(=O)N1CCC[C@H]1C(=O)N[C@@H](CO)C(=O)N[C@@H](CO)C(=O)NCC(=O)N[C@@H](C)C(=O)N1CCC[C@H]1C(=O)N1CCC[C@H]1C(=O)N1CCC[C@H]1C(=O)N[C@@H](CO)C(N)=O [Example 183] (H-Y[Aib]EGT[αMePhe(2-F)]TSDLSI[αMeL]LDEK([AEEA-AEEA-γGlu-C20 diacid])AQ[Aib]EFI[dE]YLIEGGPSSGAPPPS-NH2) | 0.0869 nM | 304 nM | 4.11 nM | – | 0.0615 nM
